These results are taken from article PMC3198391, “Mechanism of Disruption of the Amt-GlnK Complex by PII-Mediated Sensing of 2-Oxoglutarate” (PLoS ONE, 2011).

Test [1] concerns the target T1, Af-GlnK3 (Archaeoglobus fulgidus, UniProt O28524, F97P).
T1 construct: full length, pET21a, C-terminal pentahistidine tag kept, three Ala (113-115) inserted in linker before tag; E. coli BL21(DE3) Rosetta; 13 kDa monomer, homotrimer; forward primer encodes MKMVVAVI, reverse end TGDEEV; sites between monomers
Nature of the test: isothermal titration calorimetry, one-site model. It counts as binding. As to conditions: read-out: Dissociation constantKD. The source says:
(§1) isothermal titration calorimetry, one-site model on Af-GlnK3
Background: Isothermal titration calorimetry measures the heat released or taken up as one component is titrated into another.

Test [2] concerns the target T2, Af-GlnK3 (Archaeoglobus fulgidus, UniProt O28524).
T2 construct: full length, pET21a, C-terminal pentahistidine tag kept, three Ala (113-115) inserted in linker before tag; E. coli BL21(DE3) Rosetta; 13 kDa monomer, homotrimer; forward primer encodes MKMVVAVI, reverse end TGDEEV; sites between monomers
Put plainly: isothermal titration calorimetry, one-site model. It counts as binding. As to conditions: read-out: Dissociation constantKD.
Excerpt: as §1

The target of test [3] is T3, Af-GlnK3 (Archaeoglobus fulgidus, UniProt O28524, F97I).
T3 construct: full length, pET21a, C-terminal pentahistidine tag kept, three Ala (113-115) inserted in linker before tag; E. coli BL21(DE3) Rosetta; 13 kDa monomer, homotrimer; forward primer encodes MKMVVAVI, reverse end TGDEEV; sites between monomers
T3 sequence (O28524 12-120 F97I): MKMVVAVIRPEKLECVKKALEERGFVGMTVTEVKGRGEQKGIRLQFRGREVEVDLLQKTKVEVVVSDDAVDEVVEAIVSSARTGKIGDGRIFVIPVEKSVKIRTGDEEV
Put plainly: isothermal titration calorimetry, one-site model. It counts as binding. As to conditions: read-out: Dissociation constantKD.
Excerpt: as §1

Test [4] concerns the target Af-GlnK3 (Archaeoglobus fulgidus) (UniProt O28524). Nature of the test: SEC; gel filtration during purification; 50 mM Tris-HCl pH 8.0, 300 mM NaCl. On the technique in general: Size exclusion chromatography separates by hydrodynamic size, large species first.
Test [5] has the same target. Put plainly: crystal structure; vapour diffusion, sitting drop, trimer fraction from size exclusion chromatography; crystals as isolated, soaked with MgATP or MgADP, or co-crystallised with MgATP and 2-OG.

T2 sequence (O28524 12-120): as the sequence (O28524 12-120 F97I) above, with I86F counted along it
Sequence of Af-GlnK3 (from UniProt O28524 1-120) (natural protein) (O28524 whole entry): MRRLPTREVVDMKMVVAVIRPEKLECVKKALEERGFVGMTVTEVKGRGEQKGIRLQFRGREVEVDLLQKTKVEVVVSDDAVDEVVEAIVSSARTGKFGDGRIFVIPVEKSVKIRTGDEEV
T1 sequence (O28524 12-120 F97P): as the sequence (O28524 12-120 F97I) above, with I86P counted along it

As for `Nc1ncnc2c1ncn2[C@@H]1O[C@H](COP(=O)(O)OP(=O)(O)O)[C@@H](O)[C@H]1O` [ADP], the figures for the Kd at Af-GlnK3 [1], on Af-GlnK3 [2] and at Af-GlnK3 [3] were 102 µM, 568 µM and 373 µM, respectively.
In the same order, the values of `Nc1ncnc2c1ncn2[C@@H]1O[C@H](COP(=O)(O)OP(=O)(O)OP(=O)(O)O)[C@@H](O)[C@H]1O` [ATP] are 128 µM, 338 µM and 149 µM.
Usually stoichiometry N stands for the number of molecules, sites or subunits per partner or assembly. In the case of “Af-GlnK3 (from UniProt O28524 1-120) (natural protein)”, the stoichiometry N in test [4] and in test [5] was 3 each time.
